Assay results from USRE50563E1, “Use of an all-D-pentapeptide chemokine antagonist to reduce opioid dose in a person with pain” (Creative Bio-Peptides, Inc., priority 2017, dated 2025).
Where two headings read alike, the source gives them in different places.

Key:
[1] = tested on: Streptozotocin (STZ) induced diabetic rats
Procedure: (§1) The induction of diabetes was confirmed 72 h after streptozotocin injection by measurement of blood glucose levels using Contour® blood glucose diagnostic kit (Bayer HealthCare, Canada). Body weight and blood glucose levels were measured before and 3 days after streptozotocin injection, once a week for three weeks after diabetes induction. Only rats having blood glucose concentration consistently higher than 300 mg/dl were used for the present study.
(§2) Appropriate concentration for each dose was adjusted accordingly.
Animals were placed in Plexiglas boxes on an elevated metal mesh floor and allowed 60 min for habituation before testing. […] Withdrawal thresholds of both paws were averaged as one single value per animal.
(§3) Assessment on the effects of RAP103 on mechanical and cold allodynia was performed between 2-4 hours following the drug administration.
(§4) All data were presented as means±SEM. Statistical analysis was performed by two-way ANOVA followed by Bonferroni post-tests. The criterion for statistical significance was P<0.05.

[2] = tested on: cytokines, IL1β, TNFα; chemokines CCL2, CCL3; and chemokines receptors CCR2 and CCR5; settings: 0.5 mg/kg, for 7 days, p.o., FIGS. 3A-F
Procedure: To test the hypothesis, we first used behavioral and molecular/cellular approaches to explore chronic pain development and inflammatory reaction in Streptozotocin (STZ) induced diabetic rats. […] CCL2 and CCL3 are two chemokines well known in mediating immune cell trafficking and immune response in the context of neuropathic pain.
as §1

[3] = tested on: Streptozotocin (STZ) induced diabetic rats; settings: oral gavage daily, FIGS. 2A-B
Procedure: as §1, §2
Cumulative scores were then obtained by summing the four scores for each rat, the minimum score being 0 (no response to any of the four trials) and the maximum possible score being 12 (repeated flicking and licking of paws on each of the four trials).
as §3, §4

[4] = tested on: Male, Sprague-Dawley rats; settings: for morphine analgesia in an animal model of post-surgical pain (reversal of mechanical allodynia): RAP-103 0.5 mg/kg i.p. plus morphine 5.0 mg/kg s.c. vs morphine alone, 25 min post-surgery, FIG. 4

all-D-TTNYT [RAP-103]
established hypersensitivity in STZ rats ([1]; 0.5.-0.02 mg/Kg b.w., daily, for 7 days, mechanical and cold allodynia): complete reversal of established hypersensitivity
mechanical allodynia in rats with neuropathic pain ([1]; STZ diabetic rats, oral gavage daily, FIGS. 1A-B): reversed mechanical allodynia
inflammation in the sciatic nerves of STZ rats (inflammatory mediators) [2]: reducing significantly all examined inflammatory mediators
inflammation in the sciatic nerves of STZ rats (inflammatory mediators) ([2]; listed as RAP103): significantly inhibited inflammation
cold allodynia in rats with neuropathic pain [3]: reversed cold allodynia
morphine analgesia in an animal model of post-surgical pain (reversal of mechanical allodynia) [4]: statistically significantly greater analgesia
morphine analgesia in an animal model of post-surgical pain (reversal of mechanical allodynia) ([4]; listed as RAP103): potentiates morphine analgesia
shift to the left of the ED50 for morphine by addition of RAP-103 ([4]; RAP-103 0.5 mg/kg plus morphine 0.5 to 5.0 mg/kg, % reversal of mechanical allodynia at t=60 min, FIG. 5): about 2 fold
